Assay results from ChEMBL document CHEMBL1201862, “PubChem BioAssay data set” (2004).
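The compound was tested at five concentrations on cells cultured in 96-well plates, with a 48-hour exposure period. GI50 = concentration required for 50% inhibition of growth.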 The source made the active and inactive calls. Cut-off read from the data, not from the text of the source: active = GI50 up to about 1.1 µM and inactive = higher.

Legend:
Assay in all cases: NCI anticancer screen, dose series, 48 h
786-0 = tested on: 786-0
A498 = tested on: A498
BT-549 = tested on: BT-549
CCRF-CEM = tested on: CCRF-CEM
DU-145 = tested on: DU-145
HCT-116 = tested on: HCT-116
HL-60 = tested on: HL-60
HOP-62 = tested on: HOP-62
HOP-92 = tested on: HOP-92
Hs-578T = tested on: Hs-578T
MCF7 = tested on: MCF7
MDA-MB-231 = tested on: MDA-MB-231
MDA-MB-435 = tested on: MDA-MB-435
Malme-3M = tested on: Malme-3M
NCI-H460 = tested on: NCI-H460
NCI/ADR-RES = tested on: NCI/ADR-RES
OVCAR-3 = tested on: OVCAR-3
RXF 393 = tested on: RXF 393
SNB-19 = tested on: SNB-19
SR = tested on: SR

Structure (SMILES)	GI50 (786-0)	GI50 (A498)	GI50 (BT-549)	GI50 (CCRF-CEM)	GI50 (DU-145)	GI50 (HCT-116)	GI50 (HL-60)	GI50 (HOP-62)	GI50 (HOP-92)	GI50 (Hs-578T)	GI50 (MCF7)	GI50 (MDA-MB-231)	GI50 (MDA-MB-435)	GI50 (Malme-3M)	GI50 (NCI-H460)	GI50 (NCI/ADR-RES)	GI50 (OVCAR-3)	GI50 (RXF 393)	GI50 (SNB-19)	GI50 (SR)
O=[As](O)(O)c1ccc(Cc2ccc([As](=O)(O)O)cc2)cc1	0.356 µM (active)	2.12 µM (inactive)	1.18 µM (inactive)	0.0813 µM (active)	0.336 µM (active)	0.895 µM (active)	1.09 µM (active)	1.31 µM (inactive)	1.5 µM (inactive)	1.33 µM (inactive)	0.284 µM (active)	1.01 µM (active)	0.577 µM (active)	1.2 µM (inactive)	0.91 µM (active)	1.48 µM (inactive)	0.839 µM (active)	0.413 µM (active)	1.15 µM (inactive)	0.269 µM (active)
N=C(N)Nc1ccc(-c2ccc(NC(=N)N)cc2)cc1	24 µM (inactive)	6.95 µM (inactive)	45.8 µM (inactive)	37.3 µM (inactive)	25.9 µM (inactive)	28.8 µM (inactive)	40.9 µM (inactive)	16.7 µM (inactive)	45 µM (inactive)	19.4 µM (inactive)	39.2 µM (inactive)	> 100 µM (inactive)	55 µM (inactive)	19 µM (inactive)	17.1 µM (inactive)	42.5 µM (inactive)	22 µM (inactive)	22.4 µM (inactive)	41.4 µM (inactive)	14.6 µM (inactive)
COc1ccc(NC(=O)CC(=O)NNC(Sc2ccccc2)c2cc(/N=N/c3ccc(Br)cc3)ccc2O)cc1 (centres undefined)	6.73 µM (inactive)	> 10 µM (inactive)	> 10 µM (inactive)	3.56 µM (inactive)	> 10 µM (inactive)	4.81 µM (inactive)	3.61 µM (inactive)	> 10 µM (inactive)	> 10 µM (inactive)	> 10 µM (inactive)	> 10 µM (inactive)	> 10 µM (inactive)	> 10 µM (inactive)	> 10 µM (inactive)	> 10 µM (inactive)	> 10 µM (inactive)	2.21 µM (inactive)	> 10 µM (inactive)	> 10 µM (inactive)	8.89 µM (inactive)
O=C1C(=C(C(=O)c2ccccc2)C(=O)c2ccccc2)OC(c2ccccc2)=C1C(=O)c1ccccc1	3.51 µM (inactive)	15.6 µM (inactive)	3.01 µM (inactive)	1.78 µM (inactive)	9.06 µM (inactive)	4.44 µM (inactive)	6.84 µM (inactive)	3.03 µM (inactive)	7.19 µM (inactive)	11.5 µM (inactive)	1.85 µM (inactive)	6.61 µM (inactive)	8.2 µM (inactive)	12.6 µM (inactive)	3.02 µM (inactive)	5.2 µM (inactive)	5.86 µM (inactive)	0.122 µM (active)	10.2 µM (inactive)	2.28 µM (inactive)
COC1CC(C)([N+](=O)[O-])C(O)C(C)O1 (centres undefined)	> 100 µM (inactive)	> 100 µM (inactive)	91.6 µM (inactive)	> 100 µM (inactive)	> 100 µM (inactive)	> 100 µM (inactive)	> 100 µM (inactive)	> 100 µM (inactive)	> 100 µM (inactive)	> 100 µM (inactive)	> 100 µM (inactive)	> 100 µM (inactive)	> 100 µM (inactive)	> 100 µM (inactive)	> 100 µM (inactive)	> 100 µM (inactive)	> 100 µM (inactive)	> 100 µM (inactive)	> 100 µM (inactive)	> 100 µM (inactive)
CCCC(CC)c1c(O)c(O)c(C(CC)CCC)c(C(CC)CCC)c1C(CC)CCC (centres undefined)	> 10 µM (inactive)	> 10 µM (inactive)	> 10 µM (inactive)	> 10 µM (inactive)	> 10 µM (inactive)	> 10 µM (inactive)	> 10 µM (inactive)	> 10 µM (inactive)	> 10 µM (inactive)	> 10 µM (inactive)	> 10 µM (inactive)	> 10 µM (inactive)	> 10 µM (inactive)	> 10 µM (inactive)	> 10 µM (inactive)	> 10 µM (inactive)	> 10 µM (inactive)	> 10 µM (inactive)	> 10 µM (inactive)	> 10 µM (inactive)
CC(=O)O[C@H]1CCC2[C@@H]3CCC4NC(=O)C(C#N)C[C@]4(C)C3CC[C@@]21C (some centres undefined)	> 10 µM (inactive)	> 10 µM (inactive)	> 10 µM (inactive)	> 10 µM (inactive)	> 10 µM (inactive)	> 10 µM (inactive)	> 10 µM (inactive)	> 10 µM (inactive)	> 10 µM (inactive)	3.96 µM (inactive)	> 10 µM (inactive)	> 10 µM (inactive)	> 10 µM (inactive)	> 10 µM (inactive)	> 10 µM (inactive)	> 10 µM (inactive)	> 10 µM (inactive)	> 10 µM (inactive)	> 10 µM (inactive)	> 10 µM (inactive)
CCCCCC1=CC(=O)C1(Cl)Cl	13.9 µM (inactive)	20.4 µM (inactive)	17.9 µM (inactive)	2.23 µM (inactive)	13.1 µM (inactive)	11.9 µM (inactive)	1.83 µM (inactive)	21.4 µM (inactive)	13.4 µM (inactive)	19 µM (inactive)	8.11 µM (inactive)	9.93 µM (inactive)	11.1 µM (inactive)	9.55 µM (inactive)	19.6 µM (inactive)	17.9 µM (inactive)	8.69 µM (inactive)	12.7 µM (inactive)	24.9 µM (inactive)	6 µM (inactive)
CC(=O)O[C@H]1/C(=C/c2ccncc2)C[C@H]2[C@@H]3CC=C4C[C@@H](N5CCCC5)CC[C@]4(C)[C@H]3CC[C@]12C	3.15 µM (inactive)	16.7 µM (inactive)	20.5 µM (inactive)	15.2 µM (inactive)	14.6 µM (inactive)	3.41 µM (inactive)	8.38 µM (inactive)	14.2 µM (inactive)	4.24 µM (inactive)	16.6 µM (inactive)	12.1 µM (inactive)	19.1 µM (inactive)	12.1 µM (inactive)	13 µM (inactive)	10.8 µM (inactive)	8.95 µM (inactive)	21.8 µM (inactive)	6.9 µM (inactive)	16.9 µM (inactive)	5.2 µM (inactive)
Cc1cc2c(cc1C)C(=O)C1(C2)Cc2cc3c(cc2C1=O)CCC3 (centres undefined)	> 100 µM (inactive)	> 100 µM (inactive)	> 100 µM (inactive)	> 100 µM (inactive)	> 100 µM (inactive)	> 100 µM (inactive)	> 100 µM (inactive)		> 100 µM (inactive)	> 100 µM (inactive)	> 100 µM (inactive)	> 10 µM (inactive)	> 100 µM (inactive)	> 100 µM (inactive)	> 100 µM (inactive)	> 100 µM (inactive)	> 100 µM (inactive)	> 100 µM (inactive)	> 100 µM (inactive)	> 100 µM (inactive)
O=c1c2cc(Cl)ccc2[nH]c2cc(O)cc(O)c12	> 10 µM (inactive)	> 10 µM (inactive)	> 10 µM (inactive)	> 10 µM (inactive)	> 10 µM (inactive)	> 10 µM (inactive)	> 10 µM (inactive)	> 10 µM (inactive)	> 10 µM (inactive)	> 10 µM (inactive)	> 10 µM (inactive)	> 10 µM (inactive)	> 10 µM (inactive)	> 10 µM (inactive)	> 10 µM (inactive)	> 10 µM (inactive)	8.55 µM (inactive)	> 10 µM (inactive)	> 10 µM (inactive)	> 10 µM (inactive)
CC(=O)Oc1ccc(/C=C/C(=O)OCCOC(=O)/C=C/c2ccc(OC(C)=O)c(OC(C)=O)c2)cc1OC(C)=O	5.06 µM (inactive)	22 µM (inactive)	15.7 µM (inactive)	1.25 µM (inactive)	9.06 µM (inactive)	4.66 µM (inactive)	3.95 µM (inactive)	1.26 µM (inactive)	5.77 µM (inactive)	16.8 µM (inactive)	9.64 µM (inactive)	14.5 µM (inactive)	6.55 µM (inactive)	12.4 µM (inactive)	11.9 µM (inactive)	4.06 µM (inactive)	5.36 µM (inactive)	7.76 µM (inactive)	11.9 µM (inactive)	3.78 µM (inactive)
O=C(O)c1cc2ccccc2oc1=O [COUMARIN-3-CARBOXYLIC ACID]	> 100 µM (inactive)	> 100 µM (inactive)	> 100 µM (inactive)	> 100 µM (inactive)	> 100 µM (inactive)	> 100 µM (inactive)	> 100 µM (inactive)	> 100 µM (inactive)	> 100 µM (inactive)	> 100 µM (inactive)	> 100 µM (inactive)	> 100 µM (inactive)	> 100 µM (inactive)	> 100 µM (inactive)	> 100 µM (inactive)	> 100 µM (inactive)	> 100 µM (inactive)	> 100 µM (inactive)	> 100 µM (inactive)	> 100 µM (inactive)
